Data published in ChEMBL document CHEMBL1141153, “A molecular target for suppression of the evolution of antibiotic resistance: inhibition of the Escherichia coli RecA protein by N(6)-(1-naphthyl)-ADP” (J Med Chem, 2005).

Target: T1, Protein RecA (Escherichia coli K-12) (UniProt P0A7G6)
T1 sequence (whole entry): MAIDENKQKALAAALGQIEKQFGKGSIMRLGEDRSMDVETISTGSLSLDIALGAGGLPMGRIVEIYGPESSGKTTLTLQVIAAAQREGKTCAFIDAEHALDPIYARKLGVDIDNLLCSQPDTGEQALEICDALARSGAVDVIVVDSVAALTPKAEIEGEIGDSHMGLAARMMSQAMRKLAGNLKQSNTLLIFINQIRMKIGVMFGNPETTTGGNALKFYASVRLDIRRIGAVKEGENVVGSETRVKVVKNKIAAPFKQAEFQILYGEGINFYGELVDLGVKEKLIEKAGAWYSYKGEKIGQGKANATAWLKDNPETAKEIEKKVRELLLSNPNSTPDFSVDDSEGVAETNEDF
Assay: In vitro apparent inhibition constant against Escherichia coli RecA protein

**Q.** For `O=P(O)(O)OP(=O)(O)OC[C@H]1O[C@@H](n2cnc3c(Nc4cccc5ccccc45)ncnc32)[C@H](O)[C@@H]1O`, which Kic is on record?
**A.** 46 µM
